Measurements: US8815590B2, “Composition and method for differentiation of human embryonic stem cells” (Stem Cells for Safer Medicines Limited, priority 2009, dated 2014)

Experiments:
[1] = tested on: Human ESCs [SHEF3]; assay: Colony morphology, RT-PCR and Western blot of OCT4/NANOG in treated human ESCs; assay type: cell-based
Description: Human ESCs [SHEF3] were treated with the indicated concentrations of BIO or compound 1M or left untreated as a control and cultured for 7 days. (A) Images show typical colonies formed following the indicated treatments. The scale bars represent 1 mm. (B) Histogram plots of ESCs analysed by flow cytometry following immunostaining with antibodies against the pluripotency markers Tra-1-60 or SSEA4. (C) RNA was extracted from the cells and RT-PCR analyses performed using primers specific to the pluripotency genes OCT4 and NANOG and to the house-keeping gene β-ACTIN. (D) Western blot analysis was performed on protein extracted from the cells and immunoblotted with antibodies specific to Oct4. Blots were stripped and reprobed with anti-Gapdh antibodies to assess equal loading. (E) Compound 1O also induces differentiation of human ESCs. SHEF3 cells were treated with the indicated concentration of 1O for 7 days. Images show typical colony morphology. (F) Histogram plots of ESCs analysed by flow cytometry following staining with Tra-1-60 and SSEA4 antibodies. Analysis of percent positive cells and mean fluorescent intensity are indicated on the plots. (G) RT PCR analysis for the expression of OCT4 and NANOG. Bands for each of the genes were from the same gel with intervening samples removed. (H) Western blot analysis of OCT4 protein expression. Proteins bands were from the same immunoblot with intervening samples removed.
SHEF1 and SHEF3 human ESCs were obtained from the UKSCB and cultured as outlined in their protocols. Briefly, ESCs were maintained on mitomycin C-inactivated mouse embryonic fibroblast (MEF) feeder layers in KnockOut Dulbecco's modified Eagle's medium (KO DMEM) (Invitrogen) supplemented with 20% (vol/vol) KO serum replacement (KOSR; Invitrogen), 1 mM non-essential amino acids (NEAA; Invitrogen), 1 mM glutamine (Invitrogen), 0.1 mM 2-mercaptoethanol (BioRad), penicillin/streptomycin, and 4 ng/ml recombinant human FGF2 (Peprotech). Cultures were passage using 1 mg/ml collagenase at a ratio of 1:8 to 1:12 every 7 days. Cultures were transferred to a feeder-free, chemically defined culture system on ESC-qualified Matrigel® (BD) coated plates in mTeSR1® (Stem Cell Technologies) media according to Stem Cell Technologies' protocol.
Total RNA was isolated and purified using TRIzol Reagent (Invitrogen), following the manufacturer's instructions. All RNA samples were treated with DNase I (Ambion) before cDNA synthesis to eliminate any contaminating genomic DNA. RNA (1 μg) was reverse transcribed into cDNA using Oligo(dT)15 (Promega) and SuperScript II (Invitrogen). Gene-specific PCR was carried out using primers and annealing temperatures outlined in Table 2.
Cell lysates (20 μg) were prepared, separated by SDS-PAGE and transferred to nitrocellulose as described previously (Welham et al., 1994). Immunoblotting was carried out using primary antibodies at the following dilutions: 1:5,000 anti-Oct4 (Santa Cruz Biotechnology; sc-9081); 1:2000 anti-GAPDH (sc-20357); 1:10,000 anti-phospho (Ser33/37/Thr41) β-catenin (Cell signalling Technology; CST 9561); 1:1000 anti-β-catenin (CST 9562). Anti-rabbit antibodies conjugated to horseradish peroxidise (DAKO) were used at 1:10,000 and blots were developed using ECL Advance (GE Healthcare) or ChemiGlow (Alpha Innotech) according to manufacturer's directions. Images were captured and analysed using the ImageQuant RT ECL system (GE Healthcare). Blots were stripped and reprobed as described previously (Welham et al., 1994).

[2] = tested on: ESCs [SHEF1]; assay: Immunofluorescence of endoderm markers FoxA2 and HNF4α, percent positive cells; assay type: cell-based, human; details: 5 days
Description: (A) RNA was extracted from ESCs [SHEF1] cultured for 7 days in the presence of 2 μM 1M for the days indicated. RT-PCR analyses were performed using primers selective for the genes indicated. (B) ESCs [SHEF1] were treated with 2 μM 1M alone or in combination with 10 μM SB43125 (S) for the days indicated and RT-PCR performed on the extracted RNA. (C) ESCs [SHEF3] were treated with 1M alone or in combination with 100 ng/ml Activin A (A) for the days indicated and RT-PCR performed. (D). ESCs [SHEF1] were treated with 2 μM 1M, or 100 ng/ml ActivinA (A) alone or in combination with 1M for 5 days. Expression of the endoderm markers FoxA2 and HNF4α was analysed by immunofluorescence. The number of percent positive cells averaged from 3 fields of view +/−SD are indicated. Scale bar represents 50 μm. (E) ESCs [SHEF1] were treated with 2 μM 1M, or 100 ng/ml ActivinA (A) alone or in combination with 1M for 5 days. Expression of the DE marker CXCR4 was alaysed by flow cytometry.
ESCs were cultured on Matrigel®-coated lummox (Greiner Bio One) trays and fixed with 4% paraformaldehyde (PFA) for 20 minutes at room temperature. Cells were permeabilised in PBST (with 0.1% Triton X-100) and blocked in 10% blocking reagent (Roche) before incubating with primary antibodies in 2% blocking reagent overnight at 4° C. After washing in PBS, cells were incubated with FITC-conjugated secondary antibodies (Vector Labs) for 3 hours at room temperature. After further washing, the cells were stained with 4,6-diamidino-2-phenylindole (DAPI) (SIGMA), washed again and mounted in MOWIOL. The following antibodies and dilutions were used: goat-anti-FoxA2 (1:100, R&D. Systems), mouse anti-Sox17 (1:50, R&D Systems), rabbit anti-HNF4α (1:100, Santa Cruz), rabbit anti-AFP (1:100, DAKO), rabbit anti-TTR (1:100, DAKO). Images were captured on a Zeiss 510 Meta confocal microscope using a 40× objective.

O=C1NC(=O)C2=C1c1cn(c3ccccc13)CCOCCOCCOCCOCCn1cc2c2ccccc21 [1M]
OCT4 and NANOG gene expression (RT-PCR) ([1]; 7 days treatment): loss of the pluripotency markers OCT4 and NANOG | Oct4 protein expression (Western blot) ([1]; 7 days treatment): loss of Oct4 protein expression | Proliferation and differentiation of human ESCs (colony morphology) ([1]; 7 days, on MEFs in KO DMEM or on Matrigel in mTeSR1, 1M at 2 μM): dramatic increase in proliferation and differentiation | FOXA2 expressing cells in the entire population ([2]; 2 μM 1M or 100 ng/ml Activin A): 35-40% | HNF4α-expressing cells ([2]; 2 μM 1M or 100 ng/ml Activin A): 20% | FoxA2 positive cells in clusters of cells ([2]; 2 μM, within clusters): 73%
